Where two headings read alike, the source gives them in different places.
Tests used:
α7-5HT3 [1] = biological target: T1, α7-5HT3 (Homo sapiens, UniProt P36544, M226I/T225I); test: agonist potency/activity at unmodified α7-5HT3 chimeric channel; assay type: cell-based; conditions: agonist activity at unmodified α7-5HT3; read-out: EC50α7-5HT3
T1 construct: expressed in transfected cells; host or cells: HEK-293 (transient transfection)

α7-GlyR = biological target: T2, α7-GlyR (Homo sapiens, UniProt P36544); test: agonist potency/activity at unmodified α7-GlyR chimeric channel; assay type: cell-based
T2 construct: expressed in transfected cells; host or cells: HEK-293 (transient transfection)
T2 sequence (P36544 with tags, fused parts or gaps): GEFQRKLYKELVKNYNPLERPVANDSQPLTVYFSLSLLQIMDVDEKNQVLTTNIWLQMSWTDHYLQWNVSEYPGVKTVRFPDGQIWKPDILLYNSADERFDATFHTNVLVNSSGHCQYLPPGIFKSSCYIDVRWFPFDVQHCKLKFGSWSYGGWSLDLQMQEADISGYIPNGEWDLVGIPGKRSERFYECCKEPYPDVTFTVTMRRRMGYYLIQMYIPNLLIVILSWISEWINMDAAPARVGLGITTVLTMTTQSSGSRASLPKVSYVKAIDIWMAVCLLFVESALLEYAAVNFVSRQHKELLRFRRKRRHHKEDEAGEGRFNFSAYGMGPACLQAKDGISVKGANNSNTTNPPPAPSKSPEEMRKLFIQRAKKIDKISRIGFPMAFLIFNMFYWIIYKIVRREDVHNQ

[2] = rat; estimated; cited from earlier work
[3] = test system: hippocampal neurons expressing Gpr40; test: patch clamp electrophysiology of hippocampal neurons expressing Gpr40; assay type: cell-based, rat; conditions: 0.2 μM; FIG. 12A
Experimental: For engineered neuromodulation of neurons by fatty acids, a fatty acid […] (Gpr40) was expressed in hippocampal neurons. Neuron firing was increased in response to a fatty acid, palmitate (20 μM), as well as a synthetic Gpr40 agonist, GW9508 (0.2 μM) (FIG. 12A, 12B). For testing, embryonic rat hippocampal neurons are transfected by electroporation with a plasmid expressing GPR40 and an mCherry fluorescent protein. Then cells are plated on poly-D-lysine coated 13 mm dia #1 glass coverslips in the wells of a 24 well plates at 50,000 cells/well. Each well receives 60 μL of cell suspension plus 60 μL of NbActiv4 medium (BrainBits) and are incubated at 37 C in 5% CO2 for 4 hours for initial cell attachment. NbActiv4 media (1 mL) is then added to each well and cultures kept for the duration of the experiment. Weekly medium changes are done by replacing 0.5 mL medium from each well with fresh NbActiv4. Fluorescent cells are recorded by patch clamp electrophysiology while palmitate or GW9508 are perfused over the cells intermittently in a saline extracellular solution.

α7-5HT3 [4] = biological target: T3, α7-5HT3 (Homo sapiens, UniProt P36544); test: agonist potency/activity at unmodified α7-5HT3 chimeric channel; assay type: cell-based
T3 construct: expressed in transfected cells; host or cells: HEK-293 (transient transfection)
T3 sequence (P36544 with tags, fused parts or gaps T225I/M226I): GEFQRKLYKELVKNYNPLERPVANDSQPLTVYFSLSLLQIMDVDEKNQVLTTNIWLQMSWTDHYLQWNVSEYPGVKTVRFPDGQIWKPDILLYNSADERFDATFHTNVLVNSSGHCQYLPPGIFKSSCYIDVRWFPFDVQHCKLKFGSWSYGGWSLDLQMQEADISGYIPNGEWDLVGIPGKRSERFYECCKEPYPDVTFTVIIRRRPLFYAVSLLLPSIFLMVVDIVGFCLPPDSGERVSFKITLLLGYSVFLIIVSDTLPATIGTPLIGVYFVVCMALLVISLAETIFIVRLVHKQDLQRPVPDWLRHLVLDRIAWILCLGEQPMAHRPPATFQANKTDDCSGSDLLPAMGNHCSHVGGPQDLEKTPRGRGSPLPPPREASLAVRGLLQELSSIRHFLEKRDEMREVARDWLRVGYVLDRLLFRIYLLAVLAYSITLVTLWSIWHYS

dopamine release = conditions: cited from earlier work
[5] = cited from earlier work

T1 sequence (P36544 with tags, fused parts or gaps T225I/M226I): as above

For C[N+](C)(C)CCO [Choline], the EC50 (α7-5HT3 [1]) was 37 µM and the EC50 (α7-GlyR) was 103 µM.
In the case of COC(=O)[C@H]1[C@@H](OC(=O)c2ccccc2)C[C@@H]2CC[C@H]1N2C [Cocaine], the “brain concentration maintained by self-administration” value [2] is given as 10 to 20 µM.
With O=C(O)CCc1ccc(NCc2cccc(Oc3ccccc3)c2)cc1 [GW9508] the neuron firing [3] was “increased”.
In the case of CNC(C)Cc1ccc2c(c1)OCO2 (centres unmarked) [MDMA, 3,4-Methylenedioxy-methamphetamine], the “agonist activity at unmodified chimeric receptor α7-5HT3” value (α7-5HT3 [4]) is reported as “do not show agonist activity”.
In the case of CCCC(C(=O)c1ccc2c(c1)OCO2)N1CCCC1 (centres unmarked) [MDPV, methylenedioxypyrvalerone], the EC50 (dopamine release; read-out: EC50 for DA release) is listed as 0.1 µM.
In the case of CN1CCCC1c1cccnc1 (centres unmarked) [Nicotine], the EC50 (dopamine release; nucleus accumbens, read-out: EC50 dopamine release in the nucleus accumbens) is listed as 0.48 µM.
In the case of CC(N)Cc1ccccc1 (centres unmarked) [amphetamine, Amphetamine], the EC50 (dopamine release; read-out: EC50 for DA release) is given as 0.5 µM.
In the case of CNC(C)C(=O)c1ccc(C)cc1 (centres unmarked) [mephedrone, Mephedrone], the EC50 (dopamine release; read-out: EC50 for DA release) is given as roughly 0.3 µM.
For CN[C@@H](C)Cc1ccccc1 [methamphetamine, Methamphetamine], the “agonist activity at unmodified chimeric receptor α7-5HT3” value (α7-5HT3 [4]) is given as “do not show agonist activity”, the “blood concentration during self-administration” value ([5]; in females) is given as 0.9 µM and the “blood concentration during self-administration” value ([5]; in males) is given as 0.7 µM.
For CNC(C)C(=O)c1ccc2c(c1)OCO2 (centres unmarked) [methylone, Methylone], the EC50 (dopamine release; read-out: EC50 for DA release) is listed as roughly 0.4 µM.
For COC(=O)C(c1ccccc1)C1CCCCN1 (centres unmarked) [methylphenidate, Methylphenidate], the EC50 (dopamine release; striatum, read-out: EC50 for release of DA in the striatum) is given as 10 µM.

Reference: patent US20240002463A1, “CHEMOGENETIC RECEPTORS AND METHODS OF MAKING AND USING” (Howard Hughes Medical Institute, priority 2022, published 2024)
